# What was measured:
# Assay in all cases: relative viability (nuclei count vs DMSO), 5 days (fraction); higher = more cells survive
# [1] = tested on: NCI-H661
# How it was run: (§1)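 Lung cancer cell lines were pin-tool dosed in 1536-well plates on the day after seeding, with either a lone drug or a fixed anchor-drug dose plus five library-drug doses (not always all listed) in √10 steps. Nuclei were counted on 4× images after 5 days. Relative viability is the ratio of treated-well to vehicle-well nuclei counts, with each value a median of duplicate plates.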
# [2] = tested on: UMC-11
# How it was run: as §1
# [3] = tested on: CAL-12T
# How it was run: as §1
# [4] = tested on: H3255
# How it was run: as §1
# [5] = tested on: NCI-H23
# How it was run: as §1
# [6] = tested on: NCI-H2087
# How it was run: as §1
# [7] = tested on: NCI-H1395
# How it was run: as §1
# [8] = tested on: A-427
# How it was run: as §1
# [9] = tested on: NCI-H322M
# How it was run: as §1
# [10] = tested on: LK-2
# How it was run: as §1
# [11] = tested on: NCI-H1355
# How it was run: as §1
# [12] = tested on: NCI-H1666
# How it was run: as §1
# [13] = tested on: NCI-H2228
# How it was run: as §1
# [14] = tested on: NCI-H1651
# How it was run: as §1
# [15] = tested on: LCLC-103H
# How it was run: as §1
# [16] = tested on: NCI-H838
# How it was run: as §1
# [17] = tested on: ABC-1
# How it was run: as §1
# [18] = tested on: NCI-H358
# How it was run: as §1
# [19] = tested on: PC-14
# How it was run: as §1
# [20] = tested on: NCI-H2085
# How it was run: as §1
# [21] = tested on: NCI-H1792
# How it was run: as §1
smiles,measurement,setting,value
COCC1(CO)C(=O)C2CCN1CC2 (centres undefined) [PRIMA-1MET] + O=C(CCCCCCC(=O)Nc1ccccc1)NO [Vorinostat] (partner 1 µM),relative viability,[1]; first compound 0.2 µM,0.853
same,relative viability,[1]; first compound 0.6325 µM,0.771
same,relative viability,[1]; first compound 2 µM,0.774
same,relative viability,[1]; first compound 6.325 µM,0.816
same,relative viability,[1]; first compound 20 µM,0.759
same,relative viability,[2]; first compound 0.2 µM,0.422
same,relative viability,[2]; first compound 0.6325 µM,0.358
same,relative viability,[2]; first compound 2 µM,0.385
same,relative viability,[2]; first compound 6.325 µM,0.477
same,relative viability,[2]; first compound 20 µM,0.479
same,relative viability,[3]; first compound 0.2 µM,0.78
same,relative viability,[3]; first compound 0.6325 µM,0.694
same,relative viability,[3]; first compound 2 µM,0.637
same,relative viability,[3]; first compound 6.325 µM,0.589
same,relative viability,[3]; first compound 20 µM,0.0657
same,relative viability,[4]; first compound 0.2 µM,0.745
same,relative viability,[4]; first compound 0.6325 µM,0.779
same,relative viability,[4]; first compound 2 µM,0.809
same,relative viability,[4]; first compound 6.325 µM,0.901
same,relative viability,[4]; first compound 20 µM,0.656
same,relative viability,[5]; first compound 0.2 µM,0.72
same,relative viability,[5]; first compound 0.6325 µM,0.48
same,relative viability,[5]; first compound 2 µM,0.482
same,relative viability,[5]; first compound 6.325 µM,0.569
same,relative viability,[5]; first compound 20 µM,0.0886
same,relative viability,[6]; first compound 0.6325 µM,0.479
same,relative viability,[6]; first compound 2 µM,0.604
same,relative viability,[6]; first compound 6.325 µM,0.477
same,relative viability,[6]; first compound 20 µM,0.336
same,relative viability,[7]; first compound 0.2 µM,0.623
same,relative viability,[7]; first compound 2 µM,0.534
same,relative viability,[7]; first compound 6.325 µM,0.762
same,relative viability,[7]; first compound 20 µM,0.26
same,relative viability,[8]; first compound 0.2 µM,1.1
same,relative viability,[8]; first compound 0.6325 µM,0.869
same,relative viability,[8]; first compound 2 µM,0.856
same,relative viability,[8]; first compound 6.325 µM,0.949
same,relative viability,[8]; first compound 20 µM,0.865
same,relative viability,[9]; first compound 0.2 µM,1.05
same,relative viability,[9]; first compound 0.6325 µM,0.806
same,relative viability,[9]; first compound 6.325 µM,0.994
same,relative viability,[9]; first compound 20 µM,0.837
same,relative viability,[10]; first compound 0.2 µM,0.181
same,relative viability,[10]; first compound 0.6325 µM,0.255
same,relative viability,[10]; first compound 2 µM,0.166
same,relative viability,[10]; first compound 6.325 µM,0.325
same,relative viability,[10]; first compound 20 µM,0.0975
same,relative viability,[11]; first compound 0.2 µM,0.648
same,relative viability,[11]; first compound 0.6325 µM,0.632
same,relative viability,[11]; first compound 2 µM,0.556
same,relative viability,[11]; first compound 6.325 µM,0.671
same,relative viability,[11]; first compound 20 µM,0.58
same,relative viability,[12]; first compound 0.2 µM,1.03
same,relative viability,[12]; first compound 0.6325 µM,0.915
same,relative viability,[12]; first compound 2 µM,1.05
same,relative viability,[12]; first compound 6.325 µM,1.07
same,relative viability,[12]; first compound 20 µM,0.956
same,relative viability,[13]; first compound 0.2 µM,0.792
same,relative viability,[13]; first compound 0.6325 µM,0.74
same,relative viability,[13]; first compound 2 µM,0.6
same,relative viability,[13]; first compound 6.325 µM,0.606
same,relative viability,[13]; first compound 20 µM,0.0625
same,relative viability,[14]; first compound 0.2 µM,0.563
same,relative viability,[14]; first compound 0.6325 µM,0.188
same,relative viability,[14]; first compound 2 µM,0.458
same,relative viability,[14]; first compound 6.325 µM,0.617
same,relative viability,[14]; first compound 20 µM,0.564
same,relative viability,[15]; first compound 0.2 µM,0.76
same,relative viability,[15]; first compound 0.6325 µM,0.64
same,relative viability,[15]; first compound 2 µM,0.558
same,relative viability,[15]; first compound 6.325 µM,0.771
same,relative viability,[15]; first compound 20 µM,0.793
same,relative viability,[16]; first compound 0.2 µM,0.769
same,relative viability,[16]; first compound 0.6325 µM,0.691
same,relative viability,[16]; first compound 2 µM,0.694
same,relative viability,[16]; first compound 6.325 µM,0.762
same,relative viability,[16]; first compound 20 µM,0.546
same,relative viability,[17]; first compound 0.2 µM,1.01
same,relative viability,[17]; first compound 2 µM,1.09
same,relative viability,[17]; first compound 6.325 µM,1.11
same,relative viability,[17]; first compound 20 µM,0.262
same,relative viability,[18]; first compound 0.2 µM,0.82
same,relative viability,[18]; first compound 0.6325 µM,0.695
same,relative viability,[18]; first compound 2 µM,0.669
same,relative viability,[18]; first compound 6.325 µM,0.786
same,relative viability,[18]; first compound 20 µM,0.163
same,relative viability,[19]; first compound 0.2 µM,0.722
same,relative viability,[19]; first compound 0.6325 µM,0.755
same,relative viability,[19]; first compound 2 µM,0.728
same,relative viability,[19]; first compound 6.325 µM,0.777
same,relative viability,[19]; first compound 20 µM,0.019
same,relative viability,[20]; first compound 0.2 µM,1.06
same,relative viability,[20]; first compound 0.6325 µM,0.776
same,relative viability,[20]; first compound 2 µM,0.706
same,relative viability,[20]; first compound 6.325 µM,0.798
same,relative viability,[20]; first compound 20 µM,0.154
COCC1(CO)C(=O)C2CCN1CC2 (centres undefined) [PRIMA-1MET] + CC1(C)CCC(c2ccc(Cl)cc2)=C(CN2CCN(c3ccc(C(=O)NS(=O)(=O)c4ccc(N[C@H](CCN5CCOCC5)CSc5ccccc5)c(S(=O)(=O)C(F)(F)F)c4)cc3)CC2)C1 [Navitoclax] (partner 0.5 µM),relative viability,[21]; first compound 0.2 µM,0.525
same,relative viability,[21]; first compound 0.6325 µM,0.48
same,relative viability,[21]; first compound 2 µM,0.589
same,relative viability,[21]; first compound 6.325 µM,0.617
same,relative viability,[21]; first compound 20 µM,0.544
same,relative viability,[2]; first compound 0.2 µM,0.347
same,relative viability,[2]; first compound 0.6325 µM,0.268
same,relative viability,[2]; first compound 2 µM,0.332
same,relative viability,[2]; first compound 6.325 µM,0.331
same,relative viability,[2]; first compound 20 µM,0.333
same,relative viability,[3]; first compound 0.2 µM,1.3
same,relative viability,[3]; first compound 0.6325 µM,1.32
same,relative viability,[3]; first compound 2 µM,1.15
same,relative viability,[3]; first compound 6.325 µM,1.3
same,relative viability,[3]; first compound 20 µM,0.583
same,relative viability,[4]; first compound 0.2 µM,0.557
same,relative viability,[4]; first compound 0.6325 µM,0.522
same,relative viability,[4]; first compound 2 µM,0.515
same,relative viability,[4]; first compound 6.325 µM,0.544
same,relative viability,[4]; first compound 20 µM,0.354
same,relative viability,[5]; first compound 0.2 µM,1.03
same,relative viability,[5]; first compound 0.6325 µM,0.668
same,relative viability,[5]; first compound 2 µM,0.701
same,relative viability,[5]; first compound 6.325 µM,0.811
same,relative viability,[5]; first compound 20 µM,0.119
same,relative viability,[6]; first compound 0.2 µM,1.03
same,relative viability,[6]; first compound 0.6325 µM,0.901
same,relative viability,[6]; first compound 2 µM,1.22
same,relative viability,[6]; first compound 6.325 µM,1.2
same,relative viability,[6]; first compound 20 µM,0.842
same,relative viability,[7]; first compound 0.2 µM,1.17
same,relative viability,[7]; first compound 0.6325 µM,1.49
same,relative viability,[7]; first compound 2 µM,1.02
same,relative viability,[7]; first compound 6.325 µM,1.24
same,relative viability,[7]; first compound 20 µM,0.44
same,relative viability,[8]; first compound 0.2 µM,0.884
same,relative viability,[8]; first compound 0.6325 µM,0.821
same,relative viability,[8]; first compound 2 µM,0.961
same,relative viability,[8]; first compound 6.325 µM,0.968
same,relative viability,[8]; first compound 20 µM,1
same,relative viability,[9]; first compound 0.2 µM,1.51
same,relative viability,[9]; first compound 6.325 µM,1.4
same,relative viability,[9]; first compound 20 µM,1.13
same,relative viability,[10]; first compound 0.2 µM,1.06
same,relative viability,[10]; first compound 0.6325 µM,0.771
same,relative viability,[10]; first compound 2 µM,0.617
same,relative viability,[10]; first compound 6.325 µM,0.726
same,relative viability,[10]; first compound 20 µM,0.133
same,relative viability,[11]; first compound 0.2 µM,1.08
same,relative viability,[11]; first compound 0.6325 µM,0.791
same,relative viability,[11]; first compound 2 µM,0.804
same,relative viability,[11]; first compound 6.325 µM,0.947
same,relative viability,[11]; first compound 20 µM,0.944
same,relative viability,[12]; first compound 0.2 µM,1.01
same,relative viability,[12]; first compound 0.6325 µM,0.858
same,relative viability,[12]; first compound 2 µM,1.03
same,relative viability,[12]; first compound 6.325 µM,0.895
same,relative viability,[12]; first compound 20 µM,0.249
same,relative viability,[13]; first compound 0.2 µM,0.9
same,relative viability,[13]; first compound 0.6325 µM,0.839
same,relative viability,[13]; first compound 2 µM,1.09
same,relative viability,[13]; first compound 6.325 µM,0.62
same,relative viability,[13]; first compound 20 µM,0.0661
same,relative viability,[14]; first compound 0.2 µM,1.15
same,relative viability,[14]; first compound 0.6325 µM,1
same,relative viability,[14]; first compound 2 µM,0.918
same,relative viability,[14]; first compound 6.325 µM,1.19
same,relative viability,[14]; first compound 20 µM,0.974
same,relative viability,[16]; first compound 0.2 µM,1.38
same,relative viability,[16]; first compound 0.6325 µM,1.12
same,relative viability,[16]; first compound 2 µM,1.23
same,relative viability,[16]; first compound 6.325 µM,1.23
same,relative viability,[16]; first compound 20 µM,1.15
same,relative viability,[19]; first compound 0.2 µM,0.951
same,relative viability,[19]; first compound 0.6325 µM,0.932
same,relative viability,[19]; first compound 2 µM,0.936
same,relative viability,[19]; first compound 6.325 µM,1.03
same,relative viability,[19]; first compound 20 µM,0.929
same,relative viability,[20]; first compound 0.2 µM,1.2
same,relative viability,[20]; first compound 0.6325 µM,1.04
same,relative viability,[20]; first compound 2 µM,1.09
same,relative viability,[20]; first compound 6.325 µM,0.734
same,relative viability,[20]; first compound 20 µM,0.364

# Source: the supplement of paper PMC10307832
